Data taken from patent US8871899B2, “Control of viral-host membrane fusion with hydrogen bond surrogate-based artificial helices” (priority 2007, dated 2014).
Where a SMILES comes first, the peptide text is derived from it. Where no end group is shown, it is not given here. The star is where a group is joined. 4‑pentenoyl = C=CCCC(=O)*

Legend:
[1] = system: CHO[HIVe] (clone 7d2) cells expressing HXB2 envelope and tat cocultured with U373-MAGI cells; type: cell-based, HIV-1
Method: Cell-cell fusion (i.e., syncytium formation) was assayed by coculturing CHO[HIVe] (clone 7d2) cells expressing HXB2 envelope and tat with U373-MAGI cells (M. Emerman and A. Geballe, National Institutes of Health AIDS Research and Reference Reagent Program) in the presence of different concentrations of peptides 1-10. Cell fusion allows the expression of nuclear β-galactosidase from the U373-MAGI indicator cell line and can be quantitated by monitoring β-galactosidase activity. After an overnight incubation at 37° C. after coculture, β-galactosidase enzymatic activity was measured with the Mammalian β-galactosidase Chemiluminescent Assay Kit (Gal-Screen from Applied Biosystems). The peptide inhibitor concentrations at which activities were reduced by 50% (IC50) relative to control samples lacking peptide inhibitor were calculated by fitting data to the variable-slope-sigmoid equation using the Prism program.
Cell-cell fusion (i.e., syncytium formation) was assayed by co-culturing CHO[HIVe] […] Cell fusion allows the expression of nuclear β-galactosidase from the U373-MAGI indicator cell line and can be quantitated by monitoring β-galactosidase activity.

[2] = biological target: IZN17 (stable model of the gp41 N-terminal three strand coiled-coil); test: Fluorescence polarization-based competitive binding assay (displacement of fluorescein-labeled peptide 12 from IZN17); design: species or system HIV-1; settings: for Binding to IZN17, result in words: fluorescence polarization competition with probe 12
[3] = system: CHO[HIVe] (clone 7d2) cells expressing HXB2 envelope and tat cocultured with U373-MAGI cells; settings: literature report; cited from earlier work
[4] = Circular dichroism spectroscopy (helicity); type: physicochemical; settings: 10% trifluoroethanol in PBS buffer
Method: CD spectra were recorded on an AVIV 202SF CD spectrometer equipped with a temperature controller using 1 mm length cells and a scan speed of 5 nm/min. The spectra were averaged over 10 scans with the baseline subtracted from analogous conditions as that for the samples. The samples were prepared in 0.1× phosphate buffered saline (13.7 mM NaCl, 1 mM phosphate, 0.27 mM KCl, pH 7.4), containing 10% trifluoroethanol, with the final peptide concentration of 50-100 μM. The concentrations of unfolded peptides were determined by the UV absorption of the tyrosine residue at 276 nm in 6.0 M guanidinium hydrochloride aqueous solution. The helix content of each peptide was determined from the mean residue CD at 222 nm, [θ]222 (deg cm^2 dmol^−1) corrected for the number of amino acids. Percent helicity was calculated from the ratio [θ]222/[θ]max, where [θ]max=(−44000+250T)(1−k/n), with k=4.0 and n=number of residues. For details on θmax calculations for HBS helices, see Wang et al., “Evaluation of Biologically Relevant Short α-Helices Stabilized by a Main-chain Hydrogen-bond Surrogate,” J. Am. Chem. Soc. 128:9248-56 (2006), which is hereby incorporated by reference in its entirety.
It was conjectured that stabilization of this peptide in helical conformation with the HBS approach may increase its helicity and affinity for IZN17. […]

[5] = biological target: IZN17 (stable model of the gp41 N-terminal three strand coiled-coil); test: Saturation binding of fluorescein-labeled peptide 12 with IZN17 (fluorescence polarization); design: species or system HIV-1; settings: saturation binding curve, PBS buffer at 25° C.
Method: FIG. 14 is a graph showing the saturation binding curve of fluorescein-labeled peptide 12 with IZN17 in PBS buffer at 25° C.
The relative affinity of peptides 1-10 for IZN17 (i.e., peptide 11) was determined using a fluorescence polarization-based competitive binding assay (Eckert & Kim, “Design of Potent Inhibitors of HIV-1 Entry from the gp41 N-Peptide Region,” Proc. Nat'l Acad. Sci. U.S.A. 98:11187-92 (2001); Stephens et al., “Inhibiting HIV Fusion with a β-Peptide Foldamer,” J. Am. Chem. Soc. 127:13126-7 (2005), which are hereby incorporated by reference in their entirety) with fluorescein-labeled peptide 12, shown in FIG. 13. FIG. 14 is a graph showing the saturation binding curve of fluorescein-labeled peptide 12 with IZN17 in PBS buffer at 25° C.
A previously described fluorescence polarization assay was utilized to determine the in vitro binding affinity of unconstrained peptides and HBS helices for a stable model of the gp41 N-terminal three strand coiled-coil, IZN17, which contains the binding site for residues W628, W631, and 1635 (see Example 3, supra) (Eckert & Kim, “Design of Potent Inhibitors of HIV-1 Entry from the gp41 N-Peptide Region,” Proc. Nat'l Acad. Sci. U.S.A. 98:11187-92 (2001), which is hereby incorporated by reference in its entirety). […]

For `CC[C@H](C)[C@H](NC(=O)[C@H](CCCCN)NC(=O)[C@H](CCCCN)NC(=O)[C@@H](NC(=O)[C@H](Cc1ccc(O)cc1)NC(=O)[C@H](CCC(=O)O)NC(=O)[C@H](CCC(=O)O)NC(=O)[C@@H](NC(=O)[C@H](CCCCN)NC(=O)[C@H](CCCCN)NC(=O)[C@H](CC(=O)O)NC(=O)[C@H](Cc1c[nH]c2ccccc12)NC(=O)[C@H](CCC(=O)O)NC(=O)[C@H](CCC(=O)O)NC(=O)[C@H](Cc1c[nH]c2ccccc12)N1CC=CCCC(=O)N[C@@H](CCSC)C(=O)N[C@@H]([C@@H](C)O)C1=O)[C@@H](C)CC)[C@@H](C)O)C(N)=O` [compound 9, XMTWEEWDKKIEEYTKKI], the EC50 ([1]; overnight coculture at 37° C., β-galactosidase readout, read-out: EC50, inhibition of gp41-mediated cell fusion) was 43 µM.

In the case of `CC[C@H](C)[C@H](NC(=O)[C@H](CCC(=O)O)NC(=O)[C@H](CCCNC(=N)N)NC(=O)[C@H](CC(=O)O)NC(=O)[C@H](Cc1c[nH]c2ccccc12)NC(=O)[C@H](CCC(=O)O)NC(=O)[C@H](CCSC)NC(=O)[C@H](Cc1c[nH]c2ccccc12)NC(=O)[C@@H](NC(=O)[C@H](CCSC)NC(C)=O)[C@@H](C)O)C(=O)N[C@@H](CC(N)=O)C(=O)N[C@@H](CC(N)=O)C(=O)N[C@@H](Cc1ccc(O)cc1)C(=O)N[C@H](C(N)=O)[C@@H](C)O` [peptide 1, AcMTWMEWDREINNYT-NH2, reference compound] (Ac-MTWMEWDREINNYT-NH2), the Kd ([2]; PBS pH 7.4, 0.1% pluronic F-68, 25° C., 25 μM IZN17, 15 nM probe 12, values much lower than probe Kd are upper limits, read-out: Kd, binding affinity for IZN17 (competition assay)) is given as 37 µM, the “Activity in cell-cell fusion assays as previously shown (Sia et al.)” value [3] is given as “ineffective in cell-cell fusion assays” and the “Helicity by CD, result in words” value [4] is given as “unstructured or very weakly helical”.

For `CC[C@H](C)[C@H](NC(=O)[C@H](CCCCN)NC(=O)[C@H](CCCCN)NC(=O)[C@@H](NC(=O)[C@H](Cc1ccc(O)cc1)NC(=O)[C@H](CCC(=O)O)NC(=O)[C@H](CCC(=O)O)NC(=O)[C@@H](NC(=O)[C@H](CCCCN)NC(=O)[C@H](CCCCN)NC(=O)[C@H](CC(=O)O)NC(=O)[C@H](Cc1c[nH]c2ccccc12)NC(=O)[C@H](CCC(=O)O)NC(=O)[C@H](CCC(=O)O)NC(=O)[C@H](Cc1c[nH]c2ccccc12)NC(=O)[C@@H](NC(=O)[C@H](CCSC)NC(C)=O)[C@@H](C)O)[C@@H](C)CC)[C@@H](C)O)C(N)=O` [peptide 10, AcMTWEEWDKKIEEYTKKI—NH2] (Ac-MTWEEWDKKIEEYTKKI-NH2), the “Cell fusion inhibition, result in words” value ([1]; concentrations up to 200 μM) was “remained ineffective in the cell culture assay” and the “Binding to IZN17, result in words” value [2] was “bound IZN17 with a similar affinity as 9”.

Work on “Suc-MTWMEWDERINNYTC^Flu-NH2 [peptide 12]” yielded a Kd [5] of 24 µM.

For “XMTWMEWDREINNYT ({4‑pentenoyl}-MTWMEWDREINNYT; staple (positions not given here); also: hydrogen bond surrogate, N-allyl residue position not given here) [compound 2]”, the “Binding to IZN17, result in words” value [2] was “did not bind the target protein with higher affinity”.
